Patent publication US8883801B2, “Substituted pyrazolo[1,5-a]pyrimidines as mTOR inhibitors” (Merck Sharp & Dohme Corp., priority 2010, dated 2014)

The molecules below were run against human mTOR enzyme (Homo sapiens, UniProt P42345) (assay: HTRF mTOR enzyme (kinase) assay). Details: rated class; 5 μM ATP, 0.2 μM GST-S6K; read-out: hMTOR IC50.
Format: biochemical
Procedure: Methods: An HTRF mTOR enzyme assay was developed to assess the compounds' inhibitory activity. The mTOR assay buffer contained 10 mM Hepes (pH 7.4), 50 mM NaCl, […] BSA, 50 mM […], 10 mM MnCl2 and 0.5 mM DTT. […] 20 ng of human mTOR enzyme (<5% pure was preincubated with the compound for 10 minutes followed by the addition of 5 μM ATP and 0.2 μM GST-S6K (Zhang et al., Protein Expression and Purification 46, pp 414-420 (2006)). The reaction was incubated for one hour at 30° C. Anti phospho p70-S6K(Thr389) (˜1.7 ng/well, anti-phospho-p70S6K-cryptate (Pho-p70S6-Kin-K cat#64CUSKAY, from Cisbio)) and anti GST-XL665 (1:1 Ratio with the substrate GST-S6K, anti GST-XL665, cat#61GSTXLB) Cisbio) were added after the reaction was stopped. The plates were read (PHERAstar, BMG) at least 2 hours after adding the anti phospho p70-S6K and the anti GST-XL665.
IC50 DETERMINATIONS: Dose-response curves were plotted from the inhibition data generated, each in duplicate, from 8 point serial dilutions of inhibitory compounds. Concentration of compound was plotted against the HTRF em665/em590 ratio signal. To generate IC50 values, the dose-response curves were fitted to a standard sigmoidal curve and IC50 values were derived by nonlinear regression analysis.

human mTOR enzyme, sequence (P42345 1360-2549 limits assumed): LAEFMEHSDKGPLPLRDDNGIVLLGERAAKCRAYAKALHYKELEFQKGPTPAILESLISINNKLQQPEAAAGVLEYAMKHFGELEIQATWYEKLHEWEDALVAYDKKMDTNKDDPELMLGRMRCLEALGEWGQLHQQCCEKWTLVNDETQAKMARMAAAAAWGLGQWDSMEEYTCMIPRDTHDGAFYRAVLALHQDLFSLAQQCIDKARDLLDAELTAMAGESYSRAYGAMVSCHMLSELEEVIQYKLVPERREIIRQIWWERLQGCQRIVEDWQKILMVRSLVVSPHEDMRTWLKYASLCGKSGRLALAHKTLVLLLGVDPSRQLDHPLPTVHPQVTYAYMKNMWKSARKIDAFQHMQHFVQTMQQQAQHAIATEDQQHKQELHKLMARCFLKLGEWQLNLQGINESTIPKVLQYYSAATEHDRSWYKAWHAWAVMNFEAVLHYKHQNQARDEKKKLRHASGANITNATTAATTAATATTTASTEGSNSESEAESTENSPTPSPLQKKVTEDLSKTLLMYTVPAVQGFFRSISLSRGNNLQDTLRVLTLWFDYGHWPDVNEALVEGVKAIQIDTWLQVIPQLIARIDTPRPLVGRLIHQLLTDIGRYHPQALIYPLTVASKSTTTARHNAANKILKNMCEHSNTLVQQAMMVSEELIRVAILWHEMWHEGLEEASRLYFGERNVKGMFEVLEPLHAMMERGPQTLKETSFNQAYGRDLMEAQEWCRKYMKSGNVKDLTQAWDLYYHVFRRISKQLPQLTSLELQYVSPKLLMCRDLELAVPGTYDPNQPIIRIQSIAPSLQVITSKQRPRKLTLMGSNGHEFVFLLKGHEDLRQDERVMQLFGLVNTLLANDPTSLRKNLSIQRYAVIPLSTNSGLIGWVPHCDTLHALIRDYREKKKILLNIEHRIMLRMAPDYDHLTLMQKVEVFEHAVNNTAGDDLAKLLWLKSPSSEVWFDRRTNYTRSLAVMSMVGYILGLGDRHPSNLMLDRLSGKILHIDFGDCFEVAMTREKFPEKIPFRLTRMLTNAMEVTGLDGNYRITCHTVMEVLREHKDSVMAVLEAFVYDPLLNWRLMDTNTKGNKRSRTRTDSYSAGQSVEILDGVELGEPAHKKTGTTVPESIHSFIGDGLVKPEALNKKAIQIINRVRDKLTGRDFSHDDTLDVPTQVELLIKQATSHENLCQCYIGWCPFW

IC50 [nM] | SMILES
100 to 1000 | COC[C@]1(C(=O)O)CC[C@H](c2nc3c(-c4cnn(-c5ccccc5)c4)cnn3c(N)c2C(C)=O)CC1 [Compound 20, (1R,4R)-4-(6-acetyl-7-amino-3-(1-phenyl-1H-pyrazol-4-yl)pyrazolo[1,5-a]pyrimidin-5-yl)-1-(methoxymethyl)-cyclohexane-carboxylic acid]
1 to 100 | COCCO[C@]1(C(=O)O)CC[C@@H](c2nc3c(-c4ccc(-c5ccn(C)n5)[n+]([O-])c4)cnn3c(N)c2S(C)(=O)=O)CC1 [Compound 45, 5-(7-amino-5-((1R,4R)-4-carboxy-4-(2-methoxyethoxy)cyclohexyl)-6-(methylsulfonyl)-pyrazolo[1,5-a]pyrimidin-3-yl)-2-(1-methyl-1H-pyrazol-3-yl)pyridine 1-oxide]
1 to 100 | COCCO[C@]1(C(=O)O)CC[C@@H](c2nc3c(-c4cnc(-c5ccn(C)n5)nc4)cnn3c(N)c2S(C)(=O)=O)CC1 [Compound 49, (1R,4R)-4-(7-amino-3-(2-(1-methyl-1H-pyrazol-3-yl)pyrimidin-5-yl)-6-(methylsulfonyl)-pyrazolo[1,5-a]-pyrimidin-5-yl)-1-(2-mcthoxyethoxy)-cyclohexanecarboxylic acid]
100 to 1000 | COCCO[C@]1(C(=O)O)CC[C@@H](c2nc3c(-c4cnn(-c5ccc(S(C)(=O)=O)cc5)c4)cnn3c(N)c2S(C)(=O)=O)CC1 [Compound 53, (1R,4R)-4-(7-amino-6-(methylsulfonyl)-3-(1-(4-(methylsulfonyl)phenyl)-1H-pyrazol-4-yl)pyrazolo[1,5-a]pyrimidin-5-yl)-1-(2-methoxyethoxy)cyclohexanecarboxylic acid]
1 to 100 | COCCO[C@]1(C(=O)O)CC[C@H](c2nc3c(-c4ccc(-c5nccs5)nc4)cnn3c(N)c2C(C)=O)CC1 [Compound 59]
1 to 100 | COCCO[C@]1(C(=O)O)CC[C@H](c2nc3c(-c4ccc(-c5cscn5)nc4)cnn3c(N)c2C(C)=O)CC1 [Compound 61, (1S,4S)-4-(6-acetyl-7-amino-3-(6-(thiazol-4-yl)pyridin-3-yl)pyrazolo[1,5-a]pyrimidin-5-yl)-1-(2-methoxyethoxy) cyclohexanecarboxylic acid]
100 to 1000 | CO[C@]1(CC(=O)O)CC[C@H](c2nc3c(-c4ccc(-c5ccccc5)nc4)cnn3c(N)c2Br)CC1 [Compound 80, 2-((1S,4S)-4-(7-amino-6-bromo-3-(6-phenylpyridin-3-yl)pyrazolo[1,5-a]pyrimidin-5-yl)-1-methoxycyclohexyl)acetic acid]
100 to 1000 | CO[C@]1(CC(=O)O)CC[C@@H](c2nc3c(-c4ccc(-c5ccccc5)nc4)cnn3c(N)c2Br)CC1 [Compound 81]
1 to 100 | COCCO[C@]1(C(=O)N(C)OC)CC[C@@H](c2nc3c(-c4cnn(-c5ccccc5)c4)cnn3c(N)c2S(C)(=O)=O)CC1 [Compound 97, (1R,4R)-4-(7-amino-6-(methylsulfonyl)-3-(1-phenyl-1H-pyrazol-4-yl)pyrazolo[1,5-a]pyrimidin-5-yl)-N-methoxy-1-(2-methoxyethoxy)-N-methylcyclohexane-carboxamide]
1 to 100 | CCONC(=O)[C@]1(OCCOC)CC[C@H](c2nc3c(-c4cnn(-c5ccccc5)c4)cnn3c(N)c2S(C)(=O)=O)CC1 [Compound 98, (1R,4R)-4-(7-amino-6-(methylsulfonyl)-3-(1-phenyl-1H-pyrazol-4-yl)pyrazolo[1,5-a]pyrimidin-5-yl)-N-ethoxy-1-(2-methoxyethoxy)-cyclohexane-carboxamide]
1 to 100 | COCCO[C@]1(C(=O)NOCC2CC2)CC[C@@H](c2nc3c(-c4cnn(-c5ccccc5)c4)cnn3c(N)c2S(C)(=O)=O)CC1 [Compound 99, (1R,4R)-4-(7-amino-6-(methylsulfonyl)-3-(1-phenyl-1H-pyrazol-4-yl)pyrazolo[1,5-a]pyrimidin-5-yl)-N-(cyclopropylmethoxy)-1-(2-methoxyethoxy)-cyclohexane-carboxamide]
1 to 100 | COCCONC(=O)[C@]1(OCCOC)CC[C@H](c2nc3c(-c4cnn(-c5ccccc5)c4)cnn3c(N)c2S(C)(=O)=O)CC1 [Compound 101]
1 to 100 | COCCO[C@]1(C(=O)NOCC2CC2)CC[C@@H](c2nc3c(-c4ccc(-c5ccccc5)nc4)cnn3c(N)c2S(C)(=O)=O)CC1 [Compound 106, (1R,4R)-4-(7-amino-6-(methylsulfonyl)-3-(6-phenylpyridin-3-yl)pyrazolo[1,5-a]pyrimidin-5-yl)-N-(cyclopropylmethoxy)-1-(2-methoxyethoxy)-cyclohexane-carboxamide]
1 to 100 | COCCO[C@]1(C(=O)c2nnc[nH]2)CC[C@H](c2nc3c(-c4cnn(-c5ccccc5)c4)cnn3c(N)c2S(C)(=O)=O)CC1 [Compound 123, ((1S,4S)-4-(7-amino-6-(methylsulfonyl)-3-(1-phenyl-1H-pyrazol-4-yl)pyrazolo[1,5-a]pyrimidin-5-yl)-1-(2-methoxyethoxy)cyclohexyl)(4H-1,2,4-triazol-3-yl)methanone]
1 to 100 | COCCO[C@]1(C(=O)c2nnc[nH]2)CC[C@H](c2nc3c(-c4ccc(-c5ccccc5)nc4)cnn3c(N)c2S(C)(=O)=O)CC1 [Compound 124, ((1S,4S)-4-(7-amino-6-(methylsulfonyl)-3-(6-phenylpyridin-3-yl)pyrazolo[1,5-a]pyrimidin-5-yl)-1-(2-methoxyethoxy)cyclohexyl)(4H-1,2,4-triazol-3-yl)methanone]
1 to 100 | COCCO[C@]1(C(=O)CO)CC[C@@H](c2nc3c(-c4ccc(-c5ccccc5)nc4)cnn3c(N)c2S(C)(=O)=O)CC1 [Compound 130, 1-((1R,4R)-4-(7-amino-6-(methylsulfonyl)-3-(6-phenylpyridin-3-yl)pyrazolo[1,5-a]pyrimidin-5-yl)-1-(2-methoxyethoxy)cyclohexyl)-2-hydroxyethanone]
1 to 100 | CC(=O)c1c(C2CCC(O)(CO)CC2)nc2c(-c3ccc(-c4ccc(O)nc4)nc3)cnn2c1N (centres unmarked) [Compound 147, 1-(7-amino-3-(6′-hydroxy-2,3′-bipyridin-5-yl)-5-(4-hydroxy-4-(hydroxymethyl)-cyclohexyl)-pyrazolo-[1,5-a]pyrimidin-6-yl)ethanone]
100 to 1000 | CC(=O)c1c(N)n2ncc(-c3cnn(-c4cnn(C)c4)c3)c2nc1[C@H]1CC[C@](O)(CO)CC1 [Compound 149, 1-(7-amino-5-((1S,4S)-4-hydroxy-4-(hydroxymethyl)-cyclohexyl)-3-(1′-methyl-1′H-1,4′-bipyrazol-4-yl)pyrazolo[1,5-a]pyrimidin-6-yl)ethanone]
1 to 100 | COC(=O)c1cccc(-c2ccc(-c3cnn4c(N)c(C(C)=O)c(C5CCC(O)(CO)CC5)nc34)cn2)c1 (centres unmarked) [Compound 150, methyl 3-(5-(6-acetyl-7-amino-5-(4-hydroxy-4-(hydroxymethyl)-cyclohexyl)-pyrazolo-[1,5-a]pyrimidin-3-yl)pyridin-2-yl)benzoate]
1 to 100 | CC(=O)c1c(C2CCC(O)(CO)CC2)nc2c(-c3ccc(-c4cccc(C(=O)O)c4)nc3)cnn2c1N (centres unmarked) [Compound 151, 3-(5-(6-acetyl-7-amino-5-(4-hydroxy-4-(hydroxymethyl)-cyclohexyl)-pyrazolo-[1,5-a]pyrimidin-3-yl)pyridin-2-yl)benzoic acid]
1 to 100 | COC(=O)c1cc(-c2ccc(-c3cnn4c(N)c(C(C)=O)c([C@H]5CC[C@](O)(CO)CC5)nc34)cn2)ccc1OC [Compound 154, methyl 5-(5-(6-acetyl-7-amino-5-((1S,4S)-4-hydroxy-4-(hydroxymethyl)-cyclohexyl)-pyrazolo-[1,5-a]pyrimidin-3-yl)pyridin-2-yl)-2-methoxybenzoate]
1 to 100 | COC[C@]1(O)CC[C@H](c2nc3c(-c4ccc(-c5ccccc5)nc4)cnn3c(N)c2Br)CC1 [Compound 163, (1R,4R)-4-(7-amino-6-bromo-3-(6-phenylpyridin-3-yl)pyrazolo[1,5-a]pyrimidin-5-yl)-1-(methoxymethyl)cyclohexanol]
1 to 100 | COCC1(CO)CCC(c2nc3c(-c4cnn(-c5ccccc5)c4)cnn3c(N)c2Br)CC1 (centres unmarked) [Compound 167, (4-(7-amino-6-bromo-3-(1-phenyl-1H-pyrazol-4-yl)pyrazolo[1,5-a]pyrimidin-5-yl)-1-(methoxymethyl)-cyclohexyl)methanol]
